The values that follow come from patent publication US6503881B2 (priority 1996, dated 2003).

In brackets after ≈: the same amount, converted by molar mass. Like-named read-outs stand apart in the source and are kept apart here. Where only a bound is given, the exact number is not on record here.

The experiment relates to bacteria. The conditions noted are these: for MIC, Peptide: unmodified parent peptide.
Setting [1] is: A. calcoaceticus AC002, agarose dilution.
Where [2] appears, read: E. cloacae ECL007, agarose dilution.
[3] abbreviates: E. coli ECO005, agarose dilution.
[4] abbreviates: E. faecalis EFS001, agarose dilution.
[5] abbreviates: E. faecalis EFS008, agarose dilution.
Where [6] appears, read: K. pneumoniae KP001, agarose dilution.
The mark [7] stands for this setting: P. aeruginosa PA004, agarose dilution.
Where [8] appears, read: S. aureus SA014, agarose dilution.
The mark [9] stands for this setting: S. aureus SA093, agarose dilution.
Setting [10] is: S. epidermidis SE010, agarose dilution.
Where [11] appears, read: S. maltophilia SMA002, agarose dilution.
Where [12] appears, read: S. marcescens SMS003, agarose dilution.

As usually defined, the MIC is the least concentration at which growth counts as inhibited. Consider I L R W P W W P W R A K [MBI 11H11CN], for which the minimal inhibitory concentration (MIC) by setting is: under setting [1], 4 mg/L; under setting [2], above 128 mg/L; under setting [3], 16 mg/L; under setting [4], 2 mg/L; under setting [5], 8 mg/L; under setting [6], 16 mg/L. This compound registered an MIC under setting [7] above 128 mg/L; an MIC under setting [8] of 4 mg/L; an MIC under setting [9] of 1 mg/L; an MIC under setting [10] of 4 mg/L; an MIC under setting [11] of 64 mg/L; an MIC under setting [12] above 128 mg/L.
With I L K K W P W W P W R K [MBI 11B4ACN], the minimal inhibitory concentration (MIC) reads like this: (A. calcoaceticus AC002) 4 mg/L; (E. cloacae ECL007) above 128 mg/L; (E. coli ECO005) 32 mg/L; (E. faecalis EFS008) 64 mg/L; (K. pneumoniae KP001) 32 mg/L; (P. aeruginosa PA004) above 128 mg/L. Also, the MIC runs as follows: (S. aureus SA008) 1 mg/L; (S. epidermidis SE010) 8 mg/L; (S. maltophilia SMA002) 64 mg/L; (S. marcescens SMS003) above 128 mg/L.
As for L K K W P W W P W R R K [MBI 11D1CN], the MIC is above 128 mg/L (A. calcoaceticus AC001); above 128 mg/L (E. cloacae ECL007); 16 mg/L (E. coli ECO002); 32 mg/L (E. faecalis EFS002); 16 mg/L (E. faecium EFM001); 64 mg/L (K. pneumoniae KP002). Also, the MIC was above 128 mg/L (P. aeruginosa PA003); 2 mg/L (S. aureus SA004); 8 mg/L (S. epidermidis SE010); 64 mg/L (S. maltophilia SMA001); above 128 mg/L (S. marcescens SMS003).
For I L R W P W W P W R R A [MBI 11H12CN], the MIC is, setting by setting: under setting [1], 4 mg/L; under setting [2], above 128 mg/L; under setting [3], 16 mg/L; under setting [4], 2 mg/L; under setting [5], 8 mg/L; under setting [6], 16 mg/L. Further, the MIC by setting is: under setting [7], above 128 mg/L; under setting [8], 2 mg/L; under setting [9], 1 mg/L; under setting [10], 4 mg/L; under setting [11], 64 mg/L; under setting [12], above 128 mg/L.
On to I L K K F P F W P W R R K [MBI 11A7CN], for which the minimal inhibitory concentration (MIC) under setting [1] was 4 mg/L; the minimum inhibitory concentration (MIC) under setting [2] was above 128 mg/L; the MIC under setting [3] was 8 mg/L; the minimal inhibitory concentration (MIC) under setting [4] was 2 mg/L; the minimal inhibitory concentration (MIC) (E. faecalis EFS002) turned out to be 16 mg/L; the minimum inhibitory concentration (MIC) under setting [5] stood at 4 mg/L. For the same compound, the MIC was 2 mg/L (E. faecium EFM003); 8 mg/L under setting [6]; above 128 mg/L under setting [7]; 2 mg/L (S. aureus SA009); 4 mg/L under setting [8]; 1 mg/L under setting [9]. The MIC reads like this: under setting [10], 4 mg/L; under setting [11], 64 mg/L; under setting [12], above 28 mg/L.
For the compound I L K K W P W W P W R R K [MBI 11ACN], the MIC is, setting by setting: (A. calcoaceticus AC002) 2 mg/L; (E. cloacae ECL007) above 128 mg/L; (E. coli ECO005) 16 mg/L; (E. faecalis EFS004) 8 mg/L; (E. faecalis EFS008) 64 mg/L; (K. pneumoniae KP001) 16 mg/L. Moreover, the MIC (P. aeruginosa PA004) was above 128 mg/L; the minimum inhibitory concentration (MIC) (S. aureus SA014) was 8 mg/L; the MIC (S. epidermidis SE010) came out at 4 mg/L; the minimum inhibitory concentration (MIC) (S. maltophilia SMA002) turned out to be 64 mg/L; the minimum inhibitory concentration (MIC) (S. marcescens SMS003) was above 128 mg/L.
On to I L K K Y P W Y P W R R K [MBI 11A5CN], for which the minimum inhibitory concentration (MIC) is above 128 mg/L (A. calcoaceticus AC001); above 128 mg/L (E. cloacae ECL007); 128 mg/L (E. coli ECO003); 32 mg/L (E. faecalis EFS002); 4 mg/L (E. faecium EFM003); above 128 mg/L (K. pneumoniae KP001). For the same compound, the minimal inhibitory concentration (MIC) (P. aeruginosa PA003) is above 128 mg/L, the minimum inhibitory concentration (MIC) (S. aureus SA002) stood at 6 mg/L, the MIC (S. maltophilia SMA002) was above 128 mg/L and the MIC (S. marcescens SMS003) is above 128 mg/L.
As to `CC[C@H](C)[C@H](NC(=O)[C@H](CC(C)C)NC(=O)[C@H](C)NC(=O)[C@@H]1CCCN1C(=O)[C@H](CC(C)C)NC(=O)CNC(=O)[C@@H](NC(=O)[C@@H](NC(=O)[C@H](CC(C)C)NC(=O)[C@@H](NC(=O)[C@H](CCCCN)NC(=O)[C@H](CCCCN)NC(=O)[C@@H](NC(=O)[C@H](C)NC(=O)[C@@H](NC(=O)[C@@H](NC(=O)[C@H](CC(C)C)NC(=O)[C@H](CCCCN)NC(=O)[C@H](CCCCN)NC(=O)[C@@H](NC(=O)[C@H](Cc1ccccc1)NC(=O)[C@H](CO)NC(=O)[C@H](CCCCN)NC(=O)[C@H](Cc1c[nH]c2ccccc12)NC(=O)[C@@H](N)CCCCN)[C@@H](C)CC)[C@@H](C)O)[C@@H](C)O)C(C)C)C(C)C)[C@@H](C)O)[C@@H](C)O)C(=O)N[C@@H](CO)C(=O)O` [MBI29], the “MIC, Peptide” value is 1 mg/L (≈ 0.348 µM) under setting [1]; above 64 mg/L under setting [2]; 4 mg/L (≈ 1.39 µM) (E. coli EC0005, agarose dilution); 0.5 mg/L (≈ 0.174 µM) under setting [4]; 0.5 mg/L (≈ 0.174 µM) under setting [5]; 2 mg/L (≈ 0.696 µM) under setting [6]. Besides, the “MIC, Peptide” value under setting [7] was 16 mg/L (≈ 5.57 µM); the “MIC, Peptide” value under setting [8] stood at 1 mg/L (≈ 0.348 µM); the “MIC, Peptide” value under setting [9] was 0.5 mg/L (≈ 0.174 µM); the “MIC, Peptide” value under setting [10] came out at 4 mg/L (≈ 1.39 µM); the “MIC, Peptide” value under setting [11] came out at 2 mg/L (≈ 0.696 µM); the “MIC, Peptide” value under setting [12] is above 128 mg/L.
Turning to I L R R W P W W P W R K [MBI 11B2CN], the minimum inhibitory concentration (MIC) is 64 mg/L (A. calcoaceticus AC001); above 128 mg/L (E. cloacae ECL007); 16 mg/L (E. coli ECO003); 8 mg/L (E. faecalis EFS004); 8 mg/L (E. faecium EFM001); 64 mg/L (K. pneumoniae KP002). The MIC is, setting by setting: (P. aeruginosa PA003) above 128 mg/L; (S. aureus SA005) 2 mg/L; (S. maltophilia SMA002) 64 mg/L; (S. marcescens SMS004) above 128 mg/L.
On to “ILRWPWWPWRRKMILKKAGS [MBI 11B17CN]”, for which the MIC was 2 mg/L (A. calcoaceticus AC002); above 128 mg/L (E. cloacae ECL007); 8 mg/L (E. coli ECO005); 4 mg/L (E. faecalis EFS008); 16 mg/L (K. pneumoniae KP001); above 128 mg/L (P. aeruginosa PA004). For the same compound, the MIC is, setting by setting: (S. aureus SA093) 2 mg/L; (S. epidermidis SE010) 4 mg/L; (S. maltophilia SMA002) 32 mg/L; (S. marcescens SMS003) above 128 mg/L.
As to W W K K W P W W P W R R K [MBI 11C5CN], the minimum inhibitory concentration (MIC) is, setting by setting: (A. calcoaceticus AC001) 32 mg/L; (E. cloacae ECL007) above 128 mg/L; (E. coli ECO001) 8 mg/L; (E. faecalis EFS002) 16 mg/L; (E. faecium EFM003) 2 mg/L; (K. pneumoniae KP002) 16 mg/L. For the same compound, the MIC was 64 mg/L (P. aeruginosa PA003); 2 mg/L (S. aureus SA009); 2 mg/L (S. epidermidis SE002); 16 mg/L (S. maltophilia SMA002); above 28 mg/L (S. marcescens SMS004).
Regarding L R W W W P W R R K [MBI 11G25CN], the minimal inhibitory concentration (MIC) by setting is: under setting [1], 2 mg/L; under setting [2], above 128 mg/L; under setting [3], 8 mg/L; under setting [4], 2 mg/L; under setting [5], 16 mg/L; under setting [6], 16 mg/L. This compound also showed an MIC under setting [7] of 64 mg/L; a minimum inhibitory concentration (MIC) under setting [8] of 2 mg/L; an MIC under setting [9] of 1 mg/L; an MIC under setting [10] of 2 mg/L; an MIC under setting [11] of 32 mg/L; a minimal inhibitory concentration (MIC) under setting [12] above 128 mg/L.
For “ILKKWPWWPWRRKMILKKAGS [MBI 11D4CN]”, the MIC runs as follows: (A. calcoaceticus AC001) above 64 mg/L; (E. cloacae ECL007) above 64 mg/L; (E. coli ECO003) 64 mg/L; (E. faecalis EFS002) 16 mg/L; (E. faecium EFM002) 1 mg/L; (K. pneumoniae KP002) above 64 mg/L. This compound gave an MIC (P. aeruginosa PA004) above 64 mg/L, an MIC (S. aureus SA009) of 4 mg/L, a minimal inhibitory concentration (MIC) (S. maltophilia SMA001) above 64 mg/L and an MIC (S. marcescens SMS004) above 64 mg/L.
I L R W P W W P W R R K [MBI 11B7CNF12]: the minimal inhibitory concentration (MIC) reads like this: under setting [1], 4 mg/L; under setting [2], above 128 mg/L; under setting [3], 16 mg/L; under setting [4], 2 mg/L; under setting [5], 8 mg/L; under setting [6], 16 mg/L. In addition, the MIC was above 128 mg/L under setting [7]; 2 mg/L under setting [8]; 1 mg/L under setting [9]; 4 mg/L under setting [10]; 64 mg/L under setting [11]; above 128 mg/L under setting [12].
